Assay results published in the NIST ThermoML archive (doi:10.1021/je100068y).
Numbers after ± are expanded uncertainties.

Test: mn = molality of the nth substance listed, in mol/kg
Conditions: 101.33 kPa, Liquid

CC(C)C[C@H](NC(=O)CN)C(=O)O [glycyl-L-leucine] + O
mass density [kg/m3]
Conditions | m1 = 0.01944 | m1 = 0.02958 | m1 = 0.0395 | m1 = 0.04928 | m1 = 0.057 | m1 = 0.07128 | m1 = 0.09125 | m1 = 0.1001
298.15 K | 997.991 ± 0.14 | 998.487 ± 0.14 | 998.954 ± 0.14 | 999.428 ± 0.14 | 999.792 ± 0.13 | 1000.49 ± 0.14 | 1001.44 ± 0.14 | 1001.85 ± 0.14
303.15 K | 996.492 ± 0.14 | 996.981 ± 0.14 | 997.455 ± 0.14 | 997.926 ± 0.14 | 998.294 ± 0.14 | 998.981 ± 0.14 | 999.94 ± 0.13 | 1000.35 ± 0.13
308.15 K | 994.971 ± 0.14 | 995.453 ± 0.14 | 995.927 ± 0.14 | 996.398 ± 0.14 | 996.773 ± 0.14 | 997.443 ± 0.14 | 998.415 ± 0.14 | 998.822 ± 0.14
313.15 K | 993.308 ± 0.14 | 993.787 ± 0.14 | 994.248 ± 0.14 | 994.705 ± 0.14 | 995.068 ± 0.14 | 995.712 ± 0.14 | 996.655 ± 0.14 | 997.07 ± 0.14

O [water] + NCC(=O)NCC(=O)O
m2 = 0
Conditions | mass density [kg/m3]
303.15 K | 995.55 ± 0.14
313.15 K | 992.392 ± 0.14

NCC(=O)NCC(=O)O [glycylglycine] + O
mass density [kg/m3]
Conditions | m1 = 0.0294 | m1 = 0.04517 | m1 = 0.06076 | m1 = 0.07901 | m1 = 0.1051 | m1 = 0.1496 | m1 = 0.2003 | m1 = 0.257 | m1 = 0.3022
298.15 K | 998.688 ± 0.14 | 999.547 ± 0.14 | 1000.42 ± 0.14 | 1001.42 ± 0.14 | 1002.86 ± 0.14 | 1005.27 ± 0.14 | 1007.99 ± 0.15 | 1011.04 ± 0.15 | 1013.4 ± 0.16
303.15 K | 997.189 ± 0.14 | 998.051 ± 0.14 | 998.909 ± 0.14 | 999.898 ± 0.13 | 1001.33 ± 0.14 | 1003.76 ± 0.14 | 1006.46 ± 0.14 | 1009.51 ± 0.15 | 1011.87 ± 0.15
308.15 K | 995.661 ± 0.14 | 996.52 ± 0.14 | 997.375 ± 0.14 | 998.349 ± 0.14 | 999.766 ± 0.14 | 1002.15 ± 0.14 | 1004.89 ± 0.14 | 1007.83 ± 0.15 | 1010.28 ± 0.15
313.15 K | 994.003 ± 0.14 | 994.856 ± 0.14 | 995.681 ± 0.14 | 996.677 ± 0.14 | 998.065 ± 0.14 | 1000.44 ± 0.14 | 1003.12 ± 0.14 | 1006.06 ± 0.14 | 1008.41 ± 0.15

CC(C)[C@H](NC(=O)CN)C(=O)O [glycyl-L-valine] + O
mass density [kg/m3]
Conditions | m1 = 0.02257 | m1 = 0.03982 | m1 = 0.06066 | m1 = 0.07858 | m1 = 0.1017 | m1 = 0.1513 | m1 = 0.1791 | m1 = 0.2026
298.15 K | 998.221 ± 0.14 | 999.108 ± 0.14 | 1000.17 ± 0.13 | 1001.09 ± 0.14 | 1002.26 ± 0.14 | 1004.75 ± 0.14 | 1006.13 ± 0.14 | 1007.28 ± 0.15
303.15 K | 996.723 ± 0.14 | 997.606 ± 0.14 | 998.679 ± 0.14 | 999.59 ± 0.13 | 1000.76 ± 0.14 | 1003.24 ± 0.14 | 1004.65 ± 0.14 | 1005.79 ± 0.14
308.15 K | 995.192 ± 0.14 | 996.067 ± 0.14 | 997.129 ± 0.14 | 998.03 ± 0.14 | 999.181 ± 0.14 | 1001.63 ± 0.14 | 1003.01 ± 0.14 | 1004.11 ± 0.14
313.15 K | 993.535 ± 0.14 | 994.395 ± 0.14 | 995.435 ± 0.14 | 996.317 ± 0.14 | 997.462 ± 0.14 | 999.879 ± 0.14 | 1001.22 ± 0.14 | 1002.29 ± 0.14
